Results on two molecules are retold here after article PMC11364775, “Ion occupancy of the selectivity filter controls opening of a cytoplasmic gate in the K2P channel TALK-2” (Nature Communications, 2024).

The test system of experiment [1] is WT TREK-1 channels (human K2P2.1). The note with it: TREK-1 WT.
Procedure: Oocytes were surgically removed from anesthetized adult females, treated with type II collagenase (Sigma-Aldrich/Merck, Germany) and manually defolliculated. 50 nl of a solution containing the K^+ channel specific cRNA was injected into Dumont stage V - VI oocytes and subsequently incubated at 17 °C in a solution containing (mM): 54 NaCl, 30 KCl, 2.4 NaHCO3, 0.82 MgSO4 x 7 H2O, 0.41 CaCl2, 0.33 Ca(NO3)2 x 4 H2O and 7.5 TRIS (pH 7.4 adjusted with NaOH/HCl) for 1–7 days before use. Electrophysiological recordings: Excised patch measurements in inside-out configuration under voltage-clamp conditions were performed at room temperature (22 – 24 °C). […] Intracellular bath solutions and compounds were applied to the cytoplasmic side of excised patches for the various K^+ channels via a gravity flow multi-barrel pipette system. Intracellular solution had the following composition (in mM): 120 KCl, 10 HEPES, 2 EGTA and 1 Pyrophosphate (pH adjusted with KOH/HCl). In other intracellular bath solutions, K^+ was replaced by Rb^+ (pH 7.4 adjusted with RbOH/HCl). Currents were recorded with an EPC10 amplifier (HEKA electronics, Germany) and sampled at 10 kHz or higher and filtered with 3 kHz (-3 dB) or higher as appropriate for sampling rate.
Recorded currents were analyzed from stable membrane patches at a voltage defined in the respective figure legend or with a voltage protocol as indicated in the respective figure. The fold activation (fold change in (tail) current amplitude) of a ligand (drug or bioactive lipid) was calculated from Eq. 1:1 Fold activationFA=Iactivated/Ibasal where Iactivated represents the stable current level in the presence of a given concentration of a respective ligand and Ibasal the measured current before ligand application. Percentage inhibition or residual currents upon blocker application for a ligand (drug or bioactive lipid) was calculated from stable currents of excised membrane patches using the following Eqs. 2 and 3:2 %inhibition=1−Iinhibited/Ibasal*100 3 Residual current=100−%inhibition where Iinhibited refers to the stable current level recorded in the presence of a given concentration of a drug or bioactive lipid and Ibasal to the measured current before ligand application. The macroscopic half-maximal concentration-inhibition relationship of a ligand was obtained using a Hill-fit for dose-response curves as depicted in Eq. 4:4 %inhibition/activation=Ibase+Imax−Ibase/1+x1/2/x^rate where base and max are the currents in the absence and presence of a respective ligand, x is the concentration of the ligand, x1/2 is the ligand concentration at which the activatory or inhibitory effect is half-maximal, rate is the Hill coefficient.
For another experiment, the target named is T1, WT TALK-2 channels (Homo sapiens, UniProt Q96T54).
T1 sequence (Q96T54 1-332): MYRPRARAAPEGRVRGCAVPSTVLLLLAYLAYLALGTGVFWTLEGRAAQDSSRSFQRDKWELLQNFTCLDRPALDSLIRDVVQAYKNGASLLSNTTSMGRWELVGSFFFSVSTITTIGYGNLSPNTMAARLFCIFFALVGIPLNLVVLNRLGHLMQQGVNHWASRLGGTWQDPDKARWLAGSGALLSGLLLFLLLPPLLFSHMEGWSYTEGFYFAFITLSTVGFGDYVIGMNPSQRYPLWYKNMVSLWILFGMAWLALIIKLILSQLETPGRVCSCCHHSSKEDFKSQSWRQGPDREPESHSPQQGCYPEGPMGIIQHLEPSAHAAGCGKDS
The experiment can be described thus: Tail current deactivation kinetics with pore blocker (inside-out patch). The experiment is classed as cell-based. On the set-up: expressed in transfected cells; host or cells: Xenopus laevis oocytes (cRNA injection), excised inside-out patches. The text has this:
In voltage-gated K^+ (Kv) channels, the closing of the lower gate can be prevented by the binding of blockers such as tetra-pentyl-ammonium (TPenA) in the pore cavity and, thereby, causing a slowing of the deactivation kinetics which is known as the ‘foot in the door’ effect[33],[34]. To test for such a mechanism in TALK-2, we activated the channels with a voltage step to +100 mV in the presence of intracellular Rb^+ followed by a repolarization step to -80 mV (to induce tail currents) with and without the K2P channel pore blocker TPenA. […] We hypothesize, that the two gates are strongly coupled and, therefore, opening the SF gate by depolarization should also open the lower gate, which then consequently would allow blocker (like TPenA) binding within the pore cavity (Fig. 5a cartoon). Upon repolarization, however, the bound TPenA blocker obstructs closure of the lower gate and thereby, hinders the SF from closure/inactivation (gate coupling).

The target in experiment [2] is T2, TALK-2 L264A mutant channels (Homo sapiens, UniProt Q96T54, L264A).
T2 sequence (Q96T54 1-332 L264A): T1 sequence (Q96T54 1-332) with L264A
Nature of the experiment: Pore blocker inhibition (dose-response, residual currents) in inside-out patches at +40 mV. The class given is cell-based. On the set-up: expressed in transfected cells; host or cells: Xenopus laevis oocytes (cRNA injection), excised inside-out patches.
Procedure: Data shown are the mean ± s.e.m and the number (n) of independent experiments and repeats of representative measurements with similar results is indicated in the figure.
Electrophysiological recordings: Excised patch measurements in inside-out configuration under voltage-clamp conditions were performed at room temperature (22 – 24 °C). Patch pipettes were made from thick-walled borosilicate glass GB 200TF-8P (Science Products, Germany), had resistances of 0.2–0.5 MΩ (tip diameter of 10 - 25 µm) and filled with a pipette solution (in mM): 120 KCl, 10 HEPES and 3.6 CaCl2 (pH 7.0 - 8.5 adjusted with KOH/HCl) or 120 KCl, 10 AMPSO and 3.6 CaCl2 (pH 9.0 - 10.5 adjusted with KOH/HCl). Intracellular bath solutions and compounds were applied to the cytoplasmic side of excised patches for the various K^+ channels via a gravity flow multi-barrel pipette system. Intracellular solution had the following composition (in mM): 120 KCl, 10 HEPES, 2 EGTA and 1 Pyrophosphate (pH adjusted with KOH/HCl). In other intracellular bath solutions, K^+ was replaced by Rb^+ (pH 7.4 adjusted with RbOH/HCl). Currents were recorded with an EPC10 amplifier (HEKA electronics, Germany) and sampled at 10 kHz or higher and filtered with 3 kHz (-3 dB) or higher as appropriate for sampling rate.
Data analysis and statistics were done using Fitmaster (HEKA electronics, version: v2x73.5, Germany), Microsoft Excel 2021 (Microsoft Corporation, USA), and Igor Pro 9 software (WaveMetrics Inc., USA). Recorded currents were analyzed from stable membrane patches at a voltage defined in the respective figure legend or with a voltage protocol as indicated in the respective figure. […] Percentage inhibition or residual currents upon blocker application for a ligand (drug or bioactive lipid) was calculated from stable currents of excised membrane patches using the following Eqs. 2 and 3:2 %inhibition=1−Iinhibited/Ibasal*100 3 Residual current=100−%inhibition where Iinhibited refers to the stable current level recorded in the presence of a given concentration of a drug or bioactive lipid and Ibasal to the measured current before ligand application.

Structures are written as SMILES. Residue numbers refer to the chain shown, from its start. Entries after “also recorded” stand apart in the source; their conditions may differ. Like-named read-outs stand apart in the source and are kept apart here.

Take `NCCOB(c1ccccc1)c1ccccc1` [2-APB, 2-aminoethoxydiphenyl borate]: the Normalized currents in experiment [1] (0.1 µM 2-APB) came to 0.03; in experiment [1] (1 µM 2-APB), 0.04; in experiment [1] (10 µM 2-APB), 0.08; in experiment [1] (100 µM 2-APB), 0.28; in experiment [1] (200 µM 2-APB) it was 0.47; in experiment [1] (500 µM 2-APB), 0.80. The Normalized currents came to 0.97 in experiment [1] (1000 µM 2-APB) and 0.99 in experiment [1] (2000 µM 2-APB).
Regarding `CCCCC[N+](CCCCC)(CCCCC)CCCCC` [TPenA, Tetra-pentyl-ammonium chloride], the “effect of TPenA inhibition on tail current kinetics” value at WT TALK-2 channels (2-APB-activated TALK-2 (1.0 mM 2-APB, 1.0 mM TPenA)) was “no effect; also recorded: little effect”. Also, the “deactivation time constant τ of tail currents” value on WT TALK-2 channels (intracellular Rb+ with 1.0 mM TPenA, step to +100 mV, repolarization to -80 mV) was determined as 7.4 ± 0.4 ms. Also, the “TPenA block of the tail current amplitudes” value at WT TALK-2 channels (intracellular Rb+, tail currents at -80 mV) is recorded as ~ 50%. In addition, on WT TALK-2 channels (with ~50 % TPenA block, intracellular Rb+), the “slowing of the deactivation kinetics” value is reported as ~ 2.5 fold. Moreover, 459 ± 58 µM corresponded to half-maximal inhibition in experiment [2] (IC50). In addition, the “Residual currents with 1 mM TPenA” value in experiment [2] (TALK-2 L264A, +40 mV) turned out to be 29.31%. Besides, the Normalized currents in experiment [2] (TALK-2 L264A, 1 µM TPenA) is given as 0.99; in experiment [2] (TALK-2 L264A, 10 µM TPenA) it was 0.97; in experiment [2] (TALK-2 L264A, 100 µM TPenA), 0.77; in experiment [2] (TALK-2 L264A, 1000 µM TPenA), 0.32; in experiment [2] (TALK-2 L264A, 4000 µM TPenA), 0.17.
